Assay results: patent publication US20200045969A1, “Fungicidal Composition and Fungicide for Controlling Asparagus Stem Blight” (Institute of Plant Protection, Jiangxi Academy of …, priority 2018, published 2020)

Tested on: Phomopsis asparagi (Sacc.)
Test: laboratory toxicity, mycelium growth rate method
Assay type: cell-based
Settings: for ATI (actually-determined toxicity index): (EC50 of standard agent/EC50 of agent to be tested)×100, difenoconazole = 100; for EC50: Phomopsis asparagi, pathogenic fungi of asparagus stem blight collected from the field
Description: According to Sun Yunpei method, the synergistic effect of the mixed drug was evaluated based on a cotoxicity coefficient (CTC). […] The subjects to be tested were pathogenic fungi of asparagus stem blight collected from the field. The determination method was conducted with reference to the mycelium growth rate method in “Technical regulation on agricultural construction project acceptance NY/T 1156.6-2006 of the People's Republic of China”.

## CC1COC(Cn2cncn2)(c2ccc(Oc3ccc(Cl)cc3)cc2Cl)O1 (stereo not shown) [difenoconazole]
  ATI (actually-determined toxicity index): 100.00
  EC50: 0.088 µg/mL

## N=C(N)c1ccc(OCCCOc2ccc(C(=N)N)cc2)cc1 [propamidine]
  ATI (actually-determined toxicity index): 166.04
  EC50: 0.053 µg/mL
